PubChem BioAssay (NCI)
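A five-concentration, 48-hour dose response in 96-well plates underlies each endpoint, interpolated linearly between surrounding concentrations. The concentration for full growth arrest is given as TGI.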

Assays:
Experiment in all cases: DTP human tumour cell line panel, 48 h
SW-620 colon = test system: SW-620 colon
MDA-MB-435 = test system: MDA-MB-435
A549 NSCLC = test system: A549 NSCLC
COLO 205 colon = test system: COLO 205 colon
SNB-19 CNS = test system: SNB-19 CNS
SF-295 CNS = test system: SF-295 CNS
UACC-257 melanoma = test system: UACC-257 melanoma
OVCAR-3 ovarian = test system: OVCAR-3 ovarian
ACHN renal = test system: ACHN renal
K-562 leukemia = test system: K-562 leukemia
PC-3 prostate = test system: PC-3 prostate
HCC-2998 colon = test system: HCC-2998 colon
KM12 colon = test system: KM12 colon
SF-539 CNS = test system: SF-539 CNS
786-0 renal = test system: 786-0 renal
NCI-H23 lung = test system: NCI-H23 lung
CAKI-1 renal = test system: CAKI-1 renal
LOX IMVI melanoma = test system: LOX IMVI melanoma
EKVX NSCLC = test system: EKVX NSCLC
T-47D breast = test system: T-47D breast
TK-10 renal = test system: TK-10 renal
HCT-15 colon = test system: HCT-15 colon
HL-60(TB) leukemia = test system: HL-60(TB) leukemia
MDA-N = test system: MDA-N
BT-549 breast = test system: BT-549 breast
OVCAR-4 ovarian = test system: OVCAR-4 ovarian
HS 578T breast = test system: HS 578T breast
SN12C renal = test system: SN12C renal
NCI-H226 lung = test system: NCI-H226 lung
HOP-92 NSCLC = test system: HOP-92 NSCLC
HCT-116 colon = test system: HCT-116 colon
MOLT-4 leukemia = test system: MOLT-4 leukemia
SNB-75 CNS = test system: SNB-75 CNS
MDA-MB-231 breast = test system: MDA-MB-231 breast
OVCAR-8 ovarian = test system: OVCAR-8 ovarian
SR leukemia = test system: SR leukemia
UO-31 renal = test system: UO-31 renal
UACC-62 melanoma = test system: UACC-62 melanoma
HOP-62 NSCLC = test system: HOP-62 NSCLC
SK-MEL-5 melanoma = test system: SK-MEL-5 melanoma
NCI/ADR-RES ovarian = test system: NCI/ADR-RES ovarian
NCI-H460 lung = test system: NCI-H460 lung
A498 renal = test system: A498 renal
NCI-H522 lung = test system: NCI-H522 lung
CCRF-CEM leukemia = test system: CCRF-CEM leukemia
SK-OV-3 ovarian = test system: SK-OV-3 ovarian
DU-145 prostate = test system: DU-145 prostate
MCF7 breast = test system: MCF7 breast
HT29 colon = test system: HT29 colon
RPMI-8226 leukemia = test system: RPMI-8226 leukemia
MALME-3M melanoma = test system: MALME-3M melanoma
U251 CNS = test system: U251 CNS
SF-268 CNS = test system: SF-268 CNS
IGROV1 ovarian = test system: IGROV1 ovarian
RXF 393 renal = test system: RXF 393 renal
SK-MEL-28 melanoma = test system: SK-MEL-28 melanoma
OVCAR-5 ovarian = test system: OVCAR-5 ovarian
SK-MEL-2 melanoma = test system: SK-MEL-2 melanoma
M14 melanoma = test system: M14 melanoma

Measured: TGI

O=c1c2cc([N+](=O)[O-])ccc2n2n1Cc1ccccc1C2
not listed: OVCAR-5 ovarian | SK-MEL-2 melanoma | M14 melanoma
> 100 µM: all other assays above

C=C(C)CN(CC#N)CC(=C)C
not listed: SF-539 CNS | HOP-92 NSCLC | NCI-H460 lung
> 100 µM: all other assays above
